Measured values reported in article PMC8302598, “Rapid discovery of self-assembling peptides with one-bead one-compound peptide library” (Nature Communications, 2021).

Tests used:
[1] = Fluorescent-activation screening assay on OBOC beads (NBD); assay type: physicochemical; settings: peptide N-terminally capped with NBD on TentaGel S beads, in water, fluorescence microscope
Excerpt: It is well known that Aβ16–20 peptide sequence KLVFF can self-assemble into nanofibers in water. We, therefore, chose it as a model peptide to test our screening strategy and used KAAGG as the non-assembling negative control. These control peptides, N-terminally capped with NBD were synthesized with standard Fmoc-chemistry, and TentaGel S resin beads as solid support but without any cleavable linker. After side-chain deprotection, the beads were thoroughly washed with DMF, which was replaced stepwise with water or methanol and then examined under a fluorescent microscope. […] This is expected as the hydrophobicity-sensitive fluorescence dye NBD would fluoresce brightly under hydrophobic condition, in this case, methanol. In water, we expect fluorescent signal emitted from non-sequestered NBD to diminish, unless it is buried inside a hydrophobic environment such as within peptide aggregates or β-sheets formed by KLVFF peptides.
Once the screening method has been validated with our model KLVFF peptide, a totally random pentapeptide library with 19[5] permutations (cysteine was omitted from the library) was constructed using our previously published methods (Supplementary Fig. 3)[23]. Again, TentaGel S resin (loading of 0.31 mmol/g) was used as the solid support. The pentapeptides in the library were N-terminally capped with NBD. […] The positive bead with an intense fluorescent signal (pointed with a solid arrow) was noted. The rest of the beads were considered negative or weak positive beads. From a total of approximately 100 000 beads screened, we selected a total of eight strongest fluorescent positive beads and four dark beads as negative beads. The peptides were then resynthesized in soluble form and purified by high-performance liquid chromatography (HPLC) for testing (Supplementary Figs. 4–12). The amino acid sequences of the eight self-assembling pentapeptides are FTISD, ITSVV, YFTEF, ISDNL, LDFPI, FAGFT, FGFDP, and FFVDF. Not unexpectedly, of the 40 amino acids in these eight pentapeptides, 50% are hydrophobic residues, predominated by Phe (11 Phe, 4 Ile, 3 Val, and 2 Leu). For the remaining 20 amino acids, six are acidic residues (5 Asp and 1 Glu) and seven are neutral and hydrophilic (4 Thr and 3 Ser). The rest are 2 Pro, 2 Gly, 1 Tyr, 1 Asn, and 1 Ala. All eight peptides have at least two hydrophobic residues. Six out of the eight peptides have one negatively charged residue (Asp or Glu). The remaining two peptides are neutral. […] For the Pro containing pentapeptides, LDFPI and FGFDP, the Pro residue, which promotes peptide turns, resides at the fourth and fifth positions, but not in the middle. Not unexpectedly, all the four randomly selected negative non-assembling peptides (RITTR, PLVKA, PFTTR, and QIMRW) have very different sequences, and contain at least one positive charged amino acid.
The OBOC pentapeptide libraries (19[5]) were built using Fmoc strategy SPPS (solid-phase peptide synthesis) (Supplementary Fig. 3). TentaGel S Resin (named N-beads with loading 0.31 mmol/g) was used as the solid phase support. The pentapeptide sequence of X1 X2 X3 X4 X5 was constructed in the library, in which X1−X5 represents either Ala, Asp, Glu, Phe, Gly, His, Ile, Lys, Leu, Met, Asn, Pro, Gln, Arg, Ser, Thr, Val, Trp, and Tyr residues. During the synthesis of OBOC library, solid support beads were mixed and split equally in each cycle, then different amino acids were added, separately, the process was repeated four times. The synthesis of peptides was used anhydrous DMF as solvent. The Fmoc group was removed by 20% (v/v) piperidine in DMF and the deprotection time was 10 min twice. During the coupling step, the HBTU (4 mM) and Fmoc-amino acid (4 mM) were dissolved in DMF containing NMM (0.4 mM). The coupling time was 50 min. Qualitative Fmoc deprotection and coupling were confirmed by ninhydrin test. All the above experiments were carried out in the solid phase peptide synthesis vessels with sieves in it. […]

[2] = Critical micelle concentration (CMC); assay type: physicochemical; settings: soluble HPLC-purified peptide, aqueous
Procedure: To estimate the propensity of the identified peptides to self-assemble, the critical micelle concentrations (CMC) of the eight positive peptides and four negative peptides were determined, and the results are shown in Table 1 and Supplementary Figs. 13, 14. The CMC of all the eight positive peptides were detectable and found to range between 8.4 and 14.8 μM, indicating the propensity for these peptides to self-assemble under aqueous environment. […] Hydrophobicity of peptides can be predicted by the value of GRAVY[28] with more negative value for more hydrophilic peptides. Of the four negative assembling peptides, two have a negative GRAVY value. […] Experimental testing, such as the screening strategy described in this work, is needed. This is because multiple factors, including hydrophobicity, hydrogen-bonding, electrostatic interactions, and positions of each residue within the peptides, all contribute to the assembling and final morphology of the self-assembled nano-structure.

| Substance | Fluorescence (beads) [1] | CMC [2] |
| --- | --- | --- |
| LDFPI [self-assembling pentapeptide identified from OBOC library] | On | 8.4 µM |
| FAGFT [self-assembling pentapeptide identified from OBOC library] | On | 13.9 µM |
| ITSVV [self-assembling pentapeptide identified from OBOC library] | On | 14.8 µM |
| FTISD [self-assembling pentapeptide identified from OBOC library] | On | 10.04 µM |
| YFTEF [self-assembling pentapeptide identified from OBOC library] | On | 11.4 µM |
| ISDNL [self-assembling pentapeptide identified from OBOC library] | On | 9.4 µM |
| FFVDF [self-assembling pentapeptide identified from OBOC library, forms nanofibers] | On | 14.4 µM |
| FGFDP [self-assembling pentapeptide identified from OBOC library] | On | 14.8 µM |
